From patent US8785488B2 (Exelixis Patent Company LLC, priority 2009, dated 2014)
Like-named read-outs stand apart in the source and are kept apart here.

What was measured:
h-TGR5 = target: T1, h-TGR5 (Homo sapiens, UniProt Q8TDU6); assay: TGR5 cAMP Assay using Cisbio cAMP Dynamic2 htrf kit (hTGR5CRE-luc HEK 293 cells); type: cell-based
T1 construct: expressed in transfected cells
T1 sequence (Q8TDU6 1-330): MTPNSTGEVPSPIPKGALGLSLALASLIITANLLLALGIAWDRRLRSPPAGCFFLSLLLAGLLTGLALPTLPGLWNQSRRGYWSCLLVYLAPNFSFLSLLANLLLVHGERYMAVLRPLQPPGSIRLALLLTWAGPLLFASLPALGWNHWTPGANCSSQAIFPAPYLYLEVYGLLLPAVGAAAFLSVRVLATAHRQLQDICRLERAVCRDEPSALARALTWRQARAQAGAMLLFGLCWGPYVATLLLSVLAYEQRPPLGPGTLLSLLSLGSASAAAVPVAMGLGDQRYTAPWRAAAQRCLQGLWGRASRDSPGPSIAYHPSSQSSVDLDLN
Description: Compounds were diluted in DPBS with 5% DMSO (8-point serial dilution by half logs) in a 96-well plate and 1 μL was transferred to a 384-well assay plate in quadruplicate. The d2-cAMP and anti-cAMP Ab-cryptate stock solution were prepared as per the instructions in the Cisbio™ (Bedford, Mass.) kit. […] Cells were adjusted to 0.44×10^6 cells/ml followed by addition of IBMX to a final concentration of 0.5 mM. The cells were then mixed with d2-cAMP solution (7.1 mL cells+100 ul d2-cAMP) and 4000 cells (9 μL) were transferred to each well of the 384-well assay plate. Cells without d2-cAMP were added to eight wells as a negative control. The plate was covered and incubated at room temp for 30 min. Then 10 μL of Ab-cryptate solution was added to each well of the assay plate and incubated for 1 hr. The plate was read on an EnVision™ plate reader (Perkin-Elmer, Waltham, Mass.) and the DeltaF value was calculated as per the instructions in the Cisbio™ kit.
In the following tables, EC50 values determined according to the TGR5 cAMP Assay described herein (cAMP); EC50 values determined according to the TGR5/CRE-Luciferiase Assay described herein (CRE-Luc). […] The following compounds in Tables 1 and 2 were made by using procedures described in the above Schemes and Examples, and, where applicable, by making any necessary substitutions of known materials that one skilled in the art would ordinarily understand how to do.

human TGR5 (h-TGR5) = target: T2, human TGR5 (h-TGR5) (Homo sapiens, UniProt Q8TDU6); assay: TGR5/CRE-Luciferiase Assay (HEK 293 hTGR5/CRE-Luc cells); type: cell-based
T2 construct: expressed in transfected cells
T2 sequence (Q8TDU6 1-330): T1 sequence (Q8TDU6 1-330)
Method in brief: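 HEK293 cells stably carrying hTGR5 and a CRE-luciferase reporter were exposed to serially diluted compounds (diluted in DMEM with 5% DMSO) for 6 h. Cells were then lysed in luciferase buffer, luminescence was read, and EC50 values were derived from dose-response curves.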

[1] = h-TGR5 cAMP EC50, Table 1, read-out: cAMP (EC50)
[2] = h-TGR5 CRE-Luc EC50, Table 1, read-out: CRE-Luc (EC50)

| EC50 (h-TGR5; [1]) [nM] | EC50 (human TGR5 (h-TGR5); [2]) [nM] | EC50 (h-TGR5; hTGR5CRE-luc HEK 293 cells, htrf cAMP, Table 2, read-out: h-TGR5 cAMP EC50 (cAMP)) [nM] | EC50 (human TGR5 (h-TGR5); HEK 293 hTGR5/CRE-Luc cells, 6 hours incubation, luciferase activity, Table 2, read-out: h-TGR5CRE-Luc EC50 (CRE-Luc)) [nM] | SMILES |
| --- | --- | --- | --- | --- |
| 100 to 1000 | 100 to 1000 |  |  | CC(C)(c1ccc(Cl)c(Cl)c1)c1cnc(S(=O)(=O)NCc2c(F)cccc2Cl)n1-c1ccc(F)cc1 [N-[(2-chloro-6-fluorophenyl)methyl]-5-[1-(3,4-dichlorophenyl)-1-methylethyl]-1-(4-fluorophenyl)-1H-imidazole-2-sulfonamide] |
| < 100 | < 100 |  |  | CCOC(=O)NS(=O)(=O)c1ccc(CSc2ncc(C(C)(C)c3ccc(Cl)c(OC)c3)n2-c2ccc(F)cc2)cc1F [ethyl {[4-({[5-{1-[4-chloro-3-(methyloxy)phenyl]-1-methylethyl}-1-(4-fluorophenyl)-1H-imidazol-2-yl]thio}methyl)-2-fluorophenyl]sulfonyl}carbamate] |
| < 100 | < 100 |  |  | CC(C)(c1ccc(S(C)(=O)=O)cc1)c1cnc(SCc2c(F)cc(C(=O)O)cc2F)n1-c1ccc(F)cc1 [3,5-difluoro-4-({[1-(4-fluorophenyl)-5-{1-methyl-1-[4-(methylsulfonyl)phenyl]ethyl}-1H-imidazol-2-yl]thio}methyl)benzoic acid] |
| < 100 | < 100 |  |  | COc1cc(C(C)(C)c2cnc(SCc3ccc(C#CCNC(=N)N)c(C(=O)O)c3)n2-c2ccc(F)cc2)ccc1Cl [2-(3-{[amino(imino)methyl]amino}prop-1-yn-1-yl)-5-({[5-{1-[4-chloro-3-(methyloxy)phenyl]-1-methylethyl}-1-(4-fluorophenyl)-1H-imidazol-2-yl]thio}methyl)benzoic acid] |
| 1000 to 10000 | 100 to 1000 |  |  | COc1cc(-n2c(C(C)(C)c3ccc(Cl)c(Cl)c3)cnc2SCc2ccc(S(=O)(=O)NC(=O)NN3CCCC3)cc2Cl)ccc1F [3-chloro-4-[({5-[1-(3,4-dichlorophenyl)-1-methylethyl]-1-[4-fluoro-3-(methyloxy)phenyl]-1H-imidazol-2-yl}thio)methyl]-N-[(pyrrolidin-1-ylamino)carbonyl]benzenesulfonamide] |
| 100 to 1000 | 1000 to 10000 |  |  | CC(C)(c1ccc(Cl)c(Cl)c1)c1cnc(COC2CCN(S(C)(=O)=O)CC2)n1-c1ccc(F)cc1 [4-[({5-[1-(3,4-dichlorophenyl)-1-methylethyl]-1-(4-fluorophenyl)-1H-imidazol-2-yl}methyl)oxy]-1-(methylsulfonyl)piperidine] |
| < 100 | < 100 |  |  | COc1cc(C(C)(C)c2cnc(SCc3c(F)cc(S(=O)(=O)NCCCNC(=N)N)cc3F)n2-c2ccc(F)cc2)ccc1Cl [N-(3-{[amino(imino)methyl]amino}propyl)-4-({[5-{1-[4-chloro-3-(methyloxy)phenyl]-1-methylethyl}-1-(4-fluorophenyl)-1H-imidazol-2-yl]thio}methyl)-3,5-difluorobenzenesulfonamide] |
| 100 to 1000 | 100 to 1000 |  |  | COc1cc(-n2c(C(C)(C)c3ccc(S(C)(=O)=O)c(Cl)c3)cnc2SCc2ccc(S(=O)(=O)NC(=O)NN3CCCC3)cc2Cl)ccc1F [3-chloro-4-{[(5-{1-[3-chloro-4-(methylsulfonyl)phenyl]-1-methylethyl}-1-[4-fluoro-3-(methyloxy)phenyl]-1H-imidazol-2-yl)thio]methyl}-N-[(pyrrolidin-1-ylamino)carbonyl]benzenesulfonamide] |
| 100 to 1000 | < 100 |  |  | COc1cc(-n2c(C(C)(C)c3ccc(Cl)c(Cl)c3)cnc2SCC2CCN(C(=O)NC(C)C)CC2)ccc1F [4-[({5-[1-(3,4-dichlorophenyl)-1-methylethyl]-1-[4-fluoro-3-(methyloxy)phenyl]-1H-imidazol-2-yl}thio)methyl]-N-(1-methylethyl)piperidine-1-carboxamide] |
| 100 to 1000 | 100 to 1000 |  |  | CC(C)NC(=O)NS(=O)(=O)c1ccc(CSc2ncc(C(C)(C)c3ccc(C(F)F)c(F)c3)n2-c2ccc(F)cc2)c(Cl)c1 [3-chloro-4-({[5-{1-[4-(difluoromethyl)-3-fluorophenyl]-1-methylethyl}-1-(4-fluorophenyl)-1H-imidazol-2-yl]thio}methyl)-N-{[(1-methylethyl)amino]carbonyl} benzenesulfonamide] |
| < 100 | < 100 |  |  | COc1cc(C(C)(C)c2cnc(SCc3c(F)cc(C(=O)N[C@H](CCCNC(=N)N)C(=O)O)cc3Cl)n2-c2ccc(F)cc2)ccc1Cl [N-2-{[3-chloro-4-({[5-{1-[4-chloro-3-(methyloxy)phenyl]-1-methylethyl}-1-(4-fluorophenyl)-1H-imidazol-2-yl]thio}methyl)-5-fluorophenyl]carbonyl}-D-arginine] |
|  |  | 100 to 1000 | < 100 | COc1cc(-n2c(SCc3ccc(Cl)c(-c4nnn[nH]4)c3)nnc2C(C)(C)c2ccc(Cl)c(OC)c2)ccc1F [Example 49] |
| 1000 to 10000 |  |  |  | CC(C)(c1ccc(S(C)(=O)=O)cc1)c1cnc(SCc2c(F)cc(C(=O)O)cc2F)n1-c1ccc(F)cn1 [3,5-difluoro-4-({[1-(5-fluoropyridin-2-yl)-5-{1-methyl-1-[4-(methylsulfonyl)phenyl]ethyl}-1H-imidazol-2-yl]thio}methyl)benzoic acid] |
| 1000 to 10000 |  |  |  | CC(C)(c1ccc(S(N)(=O)=O)cc1)c1cnc(SCc2ccc(S(=O)(=O)NC(=O)NN3CCOCC3)cc2Cl)n1-c1ccc(F)c(F)c1 [4-({[5-{1-[4-(aminosulfonyl)phenyl]-1-methylethyl}-1-(3,4-difluorophenyl)-1H-imidazol-2-yl]thio}methyl)-3-chloro-N-[(morpholin-4-ylamino)carbonyl]benzenesulfonamide] |
| 1000 to 10000 |  |  |  | COc1cc(C(C)(C)c2cnc(SCc3ccc(S(=O)(=O)NC(=O)NN4CCCC4)cc3Cl)n2-c2cc(C)c(Cl)cn2)ccc1Cl [3-chloro-4-({[5-{1-[4-chloro-3-(methyloxy)phenyl]-1-methylethyl}-1-(5-chloro-4-methylpyridin-2-yl)-1H-imidazol-2-yl]thio}methyl)-N-[(pyrrolidin-1-ylamino)carbonyl]benzenesulfonamide] |
| 100 to 1000 |  |  |  | COCC1CCCN1NC(=O)NS(=O)(=O)c1ccc(CSc2ncc(C(C)(C)c3ccc(Cl)c(OC)c3)n2-c2ccc(F)cc2)c(Cl)c1 (stereo in doubt) [3-chloro-4-({[5-{1-[4-chloro-3-(methyloxy)phenyl]-1-methylethyl}-1-(4-fluorophenyl)-1H-imidazol-2-yl]thio}methyl)-N-[({(2S)-2-[(methyloxy)methyl]pyrrolidin-1-yl}amino)carbonyl]benzenesulfonamide] |
| 1000 to 10000 |  |  |  | CC(C)(c1ccc(Cl)cc1)c1cnc(SCc2ccc(S(=O)(=O)NC(=O)NN3CCCC3)cc2Cl)n1-c1ccc(F)cc1F [3-chloro-4-[({5-[1-(4-chlorophenyl)-1-methylethyl]-1-(2,4-difluorophenyl)-1H-imidazol-2-yl}thio)methyl]-N-[(pyrrolidin-1-ylamino)carbonyl]benzenesulfonamide] |
| 100 to 1000 |  |  |  | COc1cc(C(C)(C)c2cnc(SCc3ccc(S(=O)(=O)NC(=O)NN4CCCC4)cc3Cl)n2-c2ccc(F)cc2)ccc1S(C)(=O)=O [3-chloro-4-({[1-(4-fluorophenyl)-5-{1-methyl-1-[3-(methyloxy)-4-(methylsulfonyl)phenyl]ethyl}-1H-imidazol-2-yl]thio}methyl)-N-[(pyrrolidin-1-ylamino)carbonyl]benzenesulfonamide] |
| 100 to 1000 |  |  |  | CNS(=O)(=O)c1ccc(C(C)(C)c2cnc(SCc3ccc(S(=O)(=O)NC(=O)NN4CCCC4)cc3Cl)n2-c2ccc(F)cc2)cc1OC [4-{1-[2-({[2-chloro-4-({[(pyrrolidin-1-ylamino)carbonyl]amino}sulfonyl)phenyl]methyl}thio)-1-(4-fluorophenyl)-1H-imidazol-5-yl]-1-methylethyl}-N-methyl-2-(methyloxy)benzenesulfonamide] |
| 100 to 1000 |  |  |  | COc1cc(-n2c(C(C)(C)c3ccc(F)cc3)cnc2SCc2ccc(S(=O)(=O)NC(=O)NN3CCCC3)cc2Cl)ccc1F [3-chloro-4-[({1-[4-fluoro-3-(methyloxy)phenyl]-5-[1-(4-fluorophenyl)-1-methylethyl]-1H-imidazol-2-yl}thio)methyl]-N-[(pyrrolidin-1-ylamino)carbonyl]benzenesulfonamide] |
